Measurements as given in publication PMC5095173, “Disulfide-activated protein kinase G Iα regulates cardiac diastolic relaxation and fine-tunes the Frank–Starling response” (Nature Communications, 2016).

How the values were obtained:
another kinase = conditions: ref www.nature.com/ncomms/2015/150810/ncomms8920; cited from earlier work
Source text: page 15: reasons explained, are complicated to interpret and they are not anticipated to be as effective as many would envisage. […] Now high profile preclinical studies show ...

[1] = 37 °C; value taken for Ca2+ calibration, no reference given; read-out: Kd of Fluo-3; cited from earlier work
Experimental: To measure cytosolic Ca^2+ levels, cells were loaded with the acetoxymethyl (AM) ester form Fluo-3 (Molecular Probes) and excited continuously at 488 nm. Emitted fluorescence was measured with a 515 nm long-pass filter. Raw fluorescent signals were calibrated off-line as per equation (1). […] Background fluorescence was subtracted from all raw signals. Custom-written Excel routines were used to measure Ca^2+ transient amplitude, diastolic Ca^2+ levels, rate of decay of the Ca^2+ transient and SR Ca^2+ content. SR Ca^2+ content was estimated fr ...

WT PKGIα = experiment: Oxidation of recombinant WT PKGIα to disulfide dimer (SDS-PAGE); type: biochemical, human; conditions: 10 mM lipoic acid, 2 h on ice; confirmed by SDS-PAGE
Experimental: A pCDNA3 expression vector encoding human FLAG-tagged PKGIα (ref. [41]) underwent site-directed mutagenesis to generate constructs for untagged WT, C42S, M438G and C42S/M438G PKGIα. Mutations were introduced using the QuikChange II Site-Directed Mutagenesis Kit (Agilent) according to the manufacturer's instructions. Expression and purification of the PKGIα mutants was performed according to a published method[42] as follows: suspension FreeStyle 293-F cells (ThermoFisher Scientific) were transfected with the appropriate PKGIα construct using the stable cationic polymer polyethyleneimine (PEI) as a transfection reagent. After ∼72 h cells were harvested by centrifugation (400g; room temperature; 15 min), re-suspended in ice cold lysis buffer (25 mM sodium phosphate buffer pH 6.8; 10 mM ethylenediaminetetraacetic acid (EDTA); 100 mM NaCl; 10 mM benzamidine hydrochloride; and 10 mM dithiothreitol (DTT)) and frozen in liquid N2. Cells were lysed by three freeze (liquid N2)-thaw (37 °C) cycles and the lysate was clarified by centrifugation at 140,000g and 4 °C for 30 min. […] Protein concentration was determined by Pierce BCA assay (ThermoFisher) and enzyme activity was confirmed using the Omnia kinase assay kit (ThermoFisher).

[2] = tested on: PKGIα Cys42 disulfide bond; conditions: ref [3], [4]; cited from earlier work
[3] = tested on: PKGIα (analogue-sensitive C42S/M438G), cGMP-activated; experiment: Chemical genetic phosphoproteomic screen, cGMP-activated PKGIα C42S/M438G versus unactivated control; type: biochemical, human PKGIα; substrates in rat heart homogenate; conditions: cGMP activation; of 29 substrates with significant change
Source text: We employed a chemical genetic method[18] to identify direct substrates of cGMP-activated PKGIα and disulfide bond-activated PKGIα in heart tissue. This method involves mutation of the ATP binding-site of the kinase of interest so that it can accept a ‘bulky' N6-alkylated ATP analogue for example, N6^−phenylethyl ATP. An oxygen atom on the γ phosphate is also replaced with a sulfur atom—giving an N6-alkylated ATPγS analogue—so that the mutant kinase catalyses the transfer of a thiophosphate group (–PO3S^3−) to its substrates instead of a phosphate. The thiophosphate group is nucleophilic, providing a basis for substrates of the analogue-sensitive kinase to be purified by a ‘covalent capture' protocol. LC–MS/MS allows identification of the substrate and localization of the phosphorylation site. Thiophosphorylated proteins can also be detected with a thiophosphate ester-specific antibody. Analogue-sensitive mutants of PKGIα and PKGIα C42S (which cannot form the activating intermolecular disulfide bond) were generated by mutating Met438 in the ATP-binding domain to Gly. This mutation was chosen based on a previous study where an analogue-sensitive mutant of the catalytic subunit of PKA—which shares sequence homology with PKGIα—was engineered. Detailed protocols are given below.
A pCDNA3 expression vector encoding human FLAG-tagged PKGIα (ref. [41]) underwent site-directed mutagenesis to generate constructs for untagged WT, C42S, M438G and C42S/M438G PKGIα. Mutations were introduced using the QuikChange II Site-Directed Mutagenesis Kit (Agilent) according to the manufacturer's instructions. Expression and purification of the PKGIα mutants was performed according to a published method[42] as follows: suspension FreeStyle 293-F cells (ThermoFisher Scientific) were transfected with the appropriate PKGIα construct using the stable cationic polymer polyethyleneimine (PEI) as a transfection reagent. After ∼72 h cells were harvested by centrifugation (400g; room temperature; 15 min), re-suspended in ice cold lysis buffer (25 mM sodium phosphate buffer pH 6.8; 10 mM ethylenediaminetetraacetic acid (EDTA); 100 mM NaCl; 10 mM benzamidine hydrochloride; and 10 mM dithiothreitol (DTT)) and frozen in liquid N2. Cells were lysed by three freeze (liquid N2)-thaw (37 °C) cycles and the lysate was clarified by centrifugation at 140,000g and 4 °C for 30 min. The soluble protein fraction was loaded onto a pre-equilibrated 8-(2-aminoethylamino)adenosine-3′, 5′-cyclic monophosphate column (8-AEA-cAMP agarose; BioLog, Germany) followed by washing with 20 column volumes of lysis buffer. The column was further washed with lysis buffer +3 M NaCl (5 column volumes) and PKGIα was then eluted with lysis buffer +150 mM NaCl and 500 μM cAMP. Removal of cAMP and buffer exchange was achieved by extensive dialysis against 25 mM sodium phosphate buffer pH 6.8, 2 mM EDTA and 100 mM NaCl. For ITC analysis, WT PKGIα was incubated with 10 mM lipoic acid for 2 h on ice to obtain ∼100% disulfide dimer (confirmed by SDS-PAGE). Oxidized WT or C42S PKGIα was further purified by size exclusion chromatography using a HiLoad 16/600 Superdex 200 pg column (GE Healthcare) with 50 mM sodium phosphate buffer pH 7.4 and 100 mM NaCl. Proteins were concentrated using Amicon Ultra centrifugal filter devices (Merck Millipore). DTT was absent in storage buffers so that the activating disulfide bond would not be reduced and so that the PKGIα M438G mutant would be oxidized to disulfide dimer in the presence of air (confirmed by SDS-PAGE). Protein concentration was determined by Pierce BCA assay (ThermoFisher) and enzyme activity was confirmed using the Omnia kinase assay kit (ThermoFisher).
Male Wistar rats (9–10 weeks; body weight 300–330 g) were euthanized by intraperitoneal injection of sodium pentobarbitone (200 mg kg^−1) with heparin (500 USP units). […]

SMILES: CC(=O)N[C@@H](CS)C(=O)O [NAC, N-acetylcysteine]
- effect on oxidation of another kinase (another kinase): promoted the oxidation of that target

SMILES: Cc1ccc(N(CC(=O)O)CC(=O)O)c(OCCOc2cc(-c3c4cc(Cl)c(=O)cc-4oc4cc(O)c(Cl)cc34)ccc2N(CC(=O)O)CC(=O)O)c1 [Fluo-3]
- Kd [1]: 864 nM

SMILES: O=C(O)CCCC[C@@H]1CCSS1 (racemic) [lipoic acid]
- disulfide dimer formed (WT PKGIα): ~100%

SMILES: Nc1nc2c(ncn2[C@@H]2O[C@@H]3COP(=O)(O)O[C@H]3[C@H]2O)c(=O)[nH]1 [cGMP, cyclic guanosine monophosphate, reference compound]
- effect on formation of the Cys42 intermolecular disulfide bond [2]: inhibits formation of the Cys42 intermolecular disulfide bond
- number of proteins with significantly increased phosphorylation when PKGIα was activated [3]: 28
